Measured values: patent US20210070735A1, “RIP1 INHIBITORY COMPOUNDS AND METHODS FOR MAKING AND USING THE SAME” (Rigel Pharmaceuticals, Inc., priority 2019, published 2021)

Legend:
[1] = target: T1, RIPK1 (Homo sapiens, UniProt Q13546); assay: RIPK1 ADP-Glo biochemical kinase assay; conditions: 30 min at 30° C.
T1 sequence (Q13546 1-671): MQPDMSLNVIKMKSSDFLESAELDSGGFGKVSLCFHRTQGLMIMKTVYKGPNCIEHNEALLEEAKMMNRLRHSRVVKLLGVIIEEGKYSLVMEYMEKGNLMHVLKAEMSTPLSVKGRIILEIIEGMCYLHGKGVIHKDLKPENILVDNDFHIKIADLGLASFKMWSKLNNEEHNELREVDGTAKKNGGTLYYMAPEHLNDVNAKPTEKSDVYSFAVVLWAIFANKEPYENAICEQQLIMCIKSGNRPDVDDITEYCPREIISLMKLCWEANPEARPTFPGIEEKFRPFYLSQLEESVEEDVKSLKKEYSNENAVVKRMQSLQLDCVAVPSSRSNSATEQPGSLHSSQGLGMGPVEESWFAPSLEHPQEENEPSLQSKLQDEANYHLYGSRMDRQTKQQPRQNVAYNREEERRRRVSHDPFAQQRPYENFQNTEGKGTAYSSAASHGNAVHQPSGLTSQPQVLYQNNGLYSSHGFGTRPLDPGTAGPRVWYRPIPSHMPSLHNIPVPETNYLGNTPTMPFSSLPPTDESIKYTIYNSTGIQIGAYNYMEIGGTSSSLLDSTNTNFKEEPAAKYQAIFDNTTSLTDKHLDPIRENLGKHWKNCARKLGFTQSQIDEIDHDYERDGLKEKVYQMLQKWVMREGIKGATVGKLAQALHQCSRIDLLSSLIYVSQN
Procedure: The final reaction volume was 5.0 μl.
Adding 5 μl of ADP-Glo™ terminated the reaction.

[2] = target: T2, murine RIP1 (Mus musculus, UniProt Q60855); assay: L929 cell necroptosis assay (TNFa + zVAD, CellTiter-Glo); format: cell-based
T2 construct: U937 and L929 cells were obtained from the American Type Culture Collection; host or cells: L929
T2 sequence (Q60855 1-656): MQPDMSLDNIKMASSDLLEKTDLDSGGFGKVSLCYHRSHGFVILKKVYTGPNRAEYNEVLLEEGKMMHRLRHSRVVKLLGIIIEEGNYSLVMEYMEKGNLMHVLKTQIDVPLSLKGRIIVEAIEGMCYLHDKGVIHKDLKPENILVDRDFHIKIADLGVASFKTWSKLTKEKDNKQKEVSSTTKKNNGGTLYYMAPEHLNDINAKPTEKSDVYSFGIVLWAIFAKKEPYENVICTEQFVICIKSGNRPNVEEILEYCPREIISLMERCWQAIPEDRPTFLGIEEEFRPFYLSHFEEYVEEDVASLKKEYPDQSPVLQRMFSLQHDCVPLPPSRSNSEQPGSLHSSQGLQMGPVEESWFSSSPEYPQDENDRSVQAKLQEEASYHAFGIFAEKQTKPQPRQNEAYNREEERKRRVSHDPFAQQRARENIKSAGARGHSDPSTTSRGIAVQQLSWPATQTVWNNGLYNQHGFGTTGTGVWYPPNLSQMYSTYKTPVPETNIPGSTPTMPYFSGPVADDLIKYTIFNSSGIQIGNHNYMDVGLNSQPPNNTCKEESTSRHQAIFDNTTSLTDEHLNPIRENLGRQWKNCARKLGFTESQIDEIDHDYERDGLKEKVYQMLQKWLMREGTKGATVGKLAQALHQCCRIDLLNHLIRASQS
Procedure: (§1) In this example, U937 and L929 cells were exposed to compounds of the present disclosure and a cell necroptosis assay was conducted to evaluate the compounds' activity against human RIP1 and murine RIP1.
(§2) U937 and L929 cells were obtained from the American Type Culture Collection (Manassa, Va., USA). Both cells were maintained in logarithmic growth phase in complete RPMI 1640 media (Sigma, ST Louis, Mo., USA) supplemented with 10% fetal bovine serum (Sigma, ST Louis, Mo., USA) at 37° C. with 5% CO2. For necroptosis assay, L929 cells were plated for 18 h in 100 µL/well medium at 10K cells/well in Costar 96-well black clear-bottom plates (Fisher Scientific, Hampton, N.H., USA); U937 cells were plated on the day of the assay in 50 µL/well medium containing 60 uM zVAD-fmk (Lonza, Basel, Switzerland) at 50K cells/well. Medium from L929 cells were removed from the 96-well plates and replaced with 50 µL/well new medium containing 40 uM zVAD-fmk. Each compound of the present disclosure evaluated in this example was serially diluted in DMSO from 2.5 mM in 4-fold dilutions, and then diluted 1:125 in complete medium. 50 µL/well 2× of the compound was then added to the cells in the plates. The cells were pre-incubated with the compound for 1 hour at 37° C. with 5% CO2 and before addition of 10 µL/well 11×TNFa (Peprotech, Rocky Hill, N.J., USA) to give a final concentration of 2 ng/mL for TNFa. The relative amount of necroptosis cells was determined by luminescent using a Wallac Victor2 Luminometer (PerkinElmer, Waltham, Mass., USA) and a CellTiter-Glo® Luminescent Cell Viability Reagent Assay (Promega, Madison, Wis., USA) added per manufacturer instructions after 18 hours of TNFa stimulation at 37° C. with 5% CO2.Results from this example are summarized in Table 2. This example establishes that embodiments of the compounds described herein have unexpectedly potent activity against human RIP1 and murine RIP1, which allows their assessment in in vivo mouse models of disease.

[3] = target: T3, human RIP1 (Homo sapiens, UniProt Q13546); assay: U937 cell necroptosis assay (TNFa + zVAD, CellTiter-Glo); format: cell-based; conditions: U937 Zvad TNF CTG Recovery, U937 cells, TNFa 2 ng/mL + zVAD-fmk, 18 hours
T3 construct: U937 and L929 cells were obtained from the American Type Culture Collection; host or cells: U937
T3 sequence (Q13546 1-671): T1 sequence (Q13546 1-671)
Procedure: as §1, §2

SMILES | IC50 [1] | IC50 [2] | IC50 [3]
CN1C(=O)[C@@H](NC(=O)n2cc(Cc3ccc(F)cc3)cn2)CCc2ccc(C#CC3(O)COC3)cc21 [Compound I-1, (S)-4-(4-fluorobenzyl)-N-(8-((3-hydroxyoxetan-3-yl)ethynyl)-1-methyl-2-oxo-2,3,4,5-tetrahydro-1H-benzo[b]azepin-3-yl)-1H-pyrazole-1-carboxamide] | 23.4 nM | 2.4 nM | 0.3 nM
CN1C(=O)C(NC(=O)c2cc(Oc3ccccc3)ccn2)CCc2ccc(CN3CCN(c4ccncc4)CC3)cc21 (racemic) [Compound I-25, (±)-N-(1-Methyl-2-oxo-8-((4-(pyridin-4-yl)piperazin-1-yl)methyl)-2,3,4,5-tetrahydro-1H-benzo[b]azepin-3-yl)-4-phenoxypicolinamide] | 68.9 nM | 37100 nM | 278 nM
O=C(NC1CCc2ccc(N3CC4(CCOCC4)C3)cc2NC1=O)c1n[nH]c(Cc2ccccc2)n1 (racemic) [Compound I-9, (±)-5-Benzyl-N-(2-oxo-8-(7-oxa-2-azaspiro[3.5]nonan-2-yl)-2,3,4,5-tetrahydro-1H-benzo[b]azepin-3-yl)-1H-1,2,4-triazole-3-carboxamide] | 414 nM | 30800 nM | 13.1 nM
CN1C(=O)C(NC(=O)c2n[nH]c(Cc3ccccc3)n2)CCc2ccc(C#Cc3ccncc3)cc21 (racemic) [Compound I-19, (±)-5-Benzyl-N-(1-methyl-2-oxo-8-(pyridin-4-ylethynyl)-2,3,4,5-tetrahydro-1H-benzo[b]azepin-3-yl)-1H-1,2,4-triazole-3-carboxamide] | 42.7 nM | 10 nM | 3.4 nM
CN1C(=O)C(NC(=O)n2cc(Cc3ccccc3)cn2)CCc2ccc(N3CC4(CCOCC4)C3)cc21 (racemic) [Compound I-23, (±)-4-Benzyl-N-(1-methyl-2-oxo-8-(7-oxa-2-azaspiro[3.5]nonan-2-yl)-2,3,4,5-tetrahydro-1H-benzo[b]azepin-3-yl)-1H-pyrazole-1-carboxamide] | 61.2 nM | 212 nM | 1.7 nM
CN1C(=O)[C@@H](NC(=O)c2n[nH]c(Cc3ccccc3)n2)CCc2ccc(C#Cc3cccnc3)cc21 [Compound I-18, (S)-5-Benzyl-N-(1-methyl-2-oxo-8-(pyridin-3-ylethynyl)-2,3,4,5-tetrahydro-1H-benzo[b]azepin-3-yl)-1H-1,2,4-triazole-3-carboxamide] | 23.4 nM | 5.9 nM | 3.2 nM
CN1C(=O)[C@@H](NC(=O)c2cc(Oc3ccccc3)ccn2)CCc2ccc(C#CC3(O)COC3)cc21 [Compound I-22, (S)—N-(8-((3-hydroxyoxetan-3-yl)ethynyl)-1-methyl-2-oxo-2,3,4,5-tetrahydro-1H-benzo[b]azepin-3-yl)-4-phenoxypicolinamide] | 34.2 nM | 8.2 nM | 0.8 nM
CN1C(=O)C(NC(=O)c2n[nH]c(Cc3ccccc3)n2)CCc2ccc(N3CCC4(CCOCC4)CC3)cc21 (racemic) [Compound I-13, (±)-5-Benzyl-N-(1-methyl-2-oxo-8-(3-oxa-9-azaspiro[5.5]undecan-9-yl)-2,3,4,5-tetrahydro-1H-benzo[b]azepin-3-yl)-1H-1,2,4-triazole-3-carboxamide] | 373 nM | 94.9 nM | 2.1 nM
CN1C(=O)C(NC(=O)c2cc(Oc3ccccc3)ccn2)CCc2ccc(N3CCC4(CCOCC4)CC3)cc21 (racemic) [Compound I-27, (±)-N-(1-Methyl-2-oxo-8-(3-oxa-9-azaspiro[5.5]undecan-9-yl)-2,3,4,5-tetrahydro-1H-benzo[b]azepin-3-yl)-4-phenoxypicolinamide] | 46.4 nM | 641 nM | 4.8 nM
CN1C(=O)C(NC(=O)c2n[nH]c(Cc3ccccc3)n2)CCc2ccc(CN3CCn4ncnc4C3)cc21 (racemic) [Compound I-8, (±)-5-Benzyl-N-(8-((5,6-dihydro-[1,2,4]triazolo[1,5-a]pyrazin-7(8H)-yl)methyl)-1-methyl-2-oxo-2,3,4,5-tetrahydro-1H-benzo[b]azepin-3-yl)-1H-1,2,4-triazole-3-carboxamide] | 378 nM | 5440 nM | 9.3 nM

More lines, main results first:

IC50 [1] | SMILES | IC50 [2] | IC50 [3]
12.7 nM | CN1CCN(C(C)(C)C#Cc2ccc3c(c2)N(C)C(=O)[C@@H](NC(=O)c2cc(Oc4ccccc4)ccn2)CC3)CC1 [Compound I-37, (S)—N-(1-Methyl-8-(3-methyl-3-(4-methylpiperazin-1-yl)but-1-yn-1-yl)-2-oxo-2,3,4,5-tetrahydro-1H-benzo[b]azepin-3-yl)-4-phenoxypicolinamide] | 1940 nM | 21 nM
32.2 nM | [2H]C([2H])([2H])N1C(=O)C(NC(=O)c2cc(Oc3ccccc3)ccn2)CCc2ccc(C#CC(C)(C)O)cc21 (racemic) [Compound I-28, (±)-N-(8-(3-Hydroxy-3-methylbut-1-yn-1-yl)-1-(methyl-d)-2-oxo-2,3,4,5-tetrahydro-1H-benzo[b]azepin-3-yl)-4-phenoxypicolinamide] | 20.9 nM | 2.4 nM
39.2 nM | [2H]C([2H])([2H])N1C(=O)[C@@H](NC(=O)n2cc(Cc3ccc(F)cc3)cn2)CCc2ccc(C#CC(C)(C)O)cc21 [Compound I-36, 4-(4-Fluorobenzyl)-N-(8-(3-hydroxy-3-methylbut-1-yn-1-yl)-1-(methyl-d)-2-oxo-2,3,4,5-tetrahydro-1H-benzo[b]azepin-3-yl)-1H-pyrazole-1-carboxamide] | 4.5 nM | 0.5 nM
54 nM | CN1C(=O)C(NC(=O)c2cc(Oc3ccccc3)ccn2)CCc2ccc(N3CC4(CCOCC4)C3)cc21 (racemic) [Compound I-31, (±)-N-(1-Methyl-2-oxo-8-(7-oxa-2-azaspiro[3.5]nonan-2-yl)-2,3,4,5-tetrahydro-1H-benzo[b]azepin-3-yl)-4-phenoxypicolinamide] | 1680 nM | 17.6 nM
41.3 nM | [2H]C([2H])([2H])N1C(=O)C(NC(=O)c2cc(Oc3ccccc3)ccn2)CCc2ccc(N3CC4(CCOCC4)C3)cc21 (racemic) [Compound I-29, (±)-N-(1-(Methyl-d3)-2-oxo-8-(7-oxa-2-azaspiro[3.5]nonan-2-yl)-2,3,4,5-tetrahydro-1H-benzo[b]azepin-3-yl)-4-phenoxypicolinamide] | 1420 nM | 6.3 nM
